From patent US8664257B2, “Oxygen-substituted 3-heteroaroylamino-propionic acid derivatives and their use as pharmaceuticals” (Sanofi, priority 2010, dated 2014) come the findings set out here.

pIC50: −log10 of the molar value. Like-named read-outs stand apart in the source and are kept apart here.

This assay has as its target T1, Recombinant human cathepsin A (Homo sapiens, UniProt P10619).
T1 construct: Recombinant human cathepsin A (residues 29-480, with a C-terminal 10-His tag); 10-His (C); purchased R&D Systems 1049-SE
T1 sequence (P10619 29-312 limits assumed): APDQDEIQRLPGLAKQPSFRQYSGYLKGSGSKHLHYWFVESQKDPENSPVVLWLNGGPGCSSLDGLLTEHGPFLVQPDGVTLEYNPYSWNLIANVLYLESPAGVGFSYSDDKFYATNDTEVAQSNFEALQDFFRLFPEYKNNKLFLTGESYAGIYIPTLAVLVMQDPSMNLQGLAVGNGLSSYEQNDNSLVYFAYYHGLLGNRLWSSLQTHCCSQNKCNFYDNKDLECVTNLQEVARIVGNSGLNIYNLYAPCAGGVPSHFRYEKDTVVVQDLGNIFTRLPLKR
T1 sequence (P10619 327-480 limits assumed): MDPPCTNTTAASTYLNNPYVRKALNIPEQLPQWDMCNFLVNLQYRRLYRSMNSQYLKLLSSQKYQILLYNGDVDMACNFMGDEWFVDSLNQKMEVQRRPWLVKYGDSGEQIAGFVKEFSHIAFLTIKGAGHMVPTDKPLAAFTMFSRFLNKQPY
Put plainly: Cathepsin A inhibitory activity. Format: biochemical. In outline:
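Read-out was microfluidic separation of cleaved vs. uncleaved Bodipy FL-bradykinin (2 μM), giving turnover, % inhibition and IC50. Compound and 833 ng/ml enzyme met for 15 min RT in pH 5.5 MES/DTT before substrate (15 min RT). The 29-480 His-tagged human enzyme was first activated by cathepsin L, then E-64 (10 μM).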

The mark [1] stands for this setting: read-out: Activity (2): Cathepsin A inhibitory activity (IC50 class).

As for `Cc1ccccc1[C@H](CC(=O)O)NC(=O)c1cc(OCC(=O)C(C)(C)C)n(-c2ccccc2F)n1` [Example 700, (S)-3-{[5-(3,3-Dimethyl-2-oxo-butoxy)-1-(2-fluoro-phenyl)-1H-pyrazole-3-carbonyl]-amino}-3-o-tolyl-propionic acid], the pIC50 under setting [1] is more than 7.00.

With `O=C(O)C[C@H](NC(=O)c1cc(OCC2CC2)n(-c2ccccc2F)n1)c1ccccc1C(F)(F)F` [Example 701], the negative logarithm of the IC50 (pIC50) under setting [1] was 6.00 to 7.00. For `O=C(O)C[C@H](NC(=O)c1cc(OCC2CC2)n(-c2ccccc2F)n1)c1cccc(Cl)c1Cl` [Example 702], under setting [1], the negative logarithm of the IC50 (pIC50) is more than 7.00.

Take `Cc1cccc(C(CC(=O)O)NC(=O)c2cc(OCC3CC3)n(-c3ccccc3F)n2)c1C` (stereo not drawn) [Example 703]: the pIC50 under setting [1] was more than 7.00. Still for that read-out and setting: the value for `O=C(O)CC(NC(=O)c1cc(OCC2CC2)n(-c2ccccc2F)n1)c1cc(Cl)ccc1Cl` (stereo not drawn) [Example 704] was more than 7.00; that for `COc1ccc(C(CC(=O)O)NC(=O)c2cc(OCC3CC3)n(-c3ccccc3F)n2)c(Cl)c1` (stereo not drawn) [Example 705] was more than 7.00; that for `CCOc1cc(C(=O)NC(CC(=O)O)c2cccc(F)c2C)nn1-c1ccccc1F` (stereo not drawn) [Example 706] was more than 7.00.

As to `CCOc1cc(C(=O)N[C@@H](CC(=O)O)c2ccccc2)nn1-c1ccccc1F` [Example 707], the negative logarithm of the IC50 (pIC50) under setting [1] is 6.00 to 7.00.

As to `CCOc1cc(C(=O)NC(CC(=O)O)c2ccc(C)cc2C)nn1-c1ccccc1F` (stereo not drawn) [Example 708], under setting [1], the pIC50 was more than 7.00. As to `CCOc1cc(C(=O)N[C@@H](CC(=O)O)c2ccccc2OC)nn1-c1ccccc1F` [Example 709], under setting [1], the pIC50 is 6.00 to 7.00. In the case of `CCOc1cc(C(=O)N[C@@H](CC(=O)O)c2ccc(C#N)cc2)nn1-c1ccccc1F` [Example 710], the pIC50 under setting [1] was 6.00 to 7.00. As to `CCOc1cc(C(=O)N[C@@H](CC(=O)O)c2cccc(OC)c2)nn1-c1ccccc1F` [Example 711], under setting [1], the pIC50 was 6.00 to 7.00. Consider `CCOc1cc(C(=O)N[C@@H](CC(=O)O)c2cccc(C)c2)nn1-c1ccccc1F` [Example 712], for which the pIC50 under setting [1] is more than 7.00.

With `CCOc1cc(C(=O)N[C@@H](CC(=O)O)c2ccc(Cl)cc2)nn1-c1ccccc1F` [Example 713], under setting [1], the pIC50 is more than 7.00.

`CCOc1cc(C(=O)NC(CC(=O)O)c2ccc(OC)cc2C)nn1-c1ccccc1F` (stereo not drawn) [Example 714]: the pIC50 under setting [1] was more than 7.00.

On to `CCOc1cc(C(=O)N[C@@H](CC(=O)O)c2ccc(C(F)(F)F)cc2)nn1-c1ccccc1F` [Example 715], for which the pIC50 under setting [1] was more than 7.00.

With `CCOc1cc(C(=O)N[C@@H](CC(=O)O)c2ccc(C)cc2)nn1-c1ccccc1F` [Example 716], the pIC50 under setting [1] is more than 7.00. Consider `CCOc1cc(C(=O)N[C@@H](CC(=O)O)c2ccccc2Cl)nn1-c1ccccc1F` [Example 717], for which the negative-log IC50 (pIC50) under setting [1] was more than 7.00. With `CCOc1cc(C(=O)NC(CC(=O)O)c2ccc(F)cc2C)nn1-c1ccccc1F` (stereo not drawn) [Example 718], under setting [1], the negative logarithm of the IC50 (pIC50) was more than 7.00.

With `CCOc1cc(C(=O)NC(CC(=O)O)c2ccc(F)cc2)nn1-c1ccccc1F` (stereo not drawn) [Example 719], under setting [1], the pIC50 was 6.00 to 7.00.

For `CCOc1cc(C(=O)N[C@@H](CC(=O)O)c2ccccc2F)nn1-c1ccccc1F` [Example 720], the pIC50 under setting [1] was more than 7.00. As to `CCOc1cc(C(=O)N[C@@H](CC(=O)O)c2ccccc2C(F)(F)F)nn1-c1ccccc1F` [Example 721], under setting [1], the negative logarithm of the IC50 (pIC50) is 6.00 to 7.00. With `CCOc1cc(C(=O)N[C@@H](CC(=O)O)c2cccc(Cl)c2Cl)nn1-c1ccccc1F` [Example 722], the negative logarithm of the IC50 (pIC50) under setting [1] was more than 7.00. For the molecule `CCOc1cc(C(=O)NC(CC(=O)O)c2cccc(C)c2C)nn1-c1ccccc1F` (stereo not drawn) [Example 723], the pIC50 under setting [1] is more than 7.00. On to `CCOc1cc(C(=O)NC(CC(=O)O)c2ccc(OC)cc2Cl)nn1-c1ccccc1F` (stereo not drawn) [Example 724], for which, under setting [1], the pIC50 was more than 7.00. `CCOc1cc(C(=O)NC(CC(=O)O)c2cccc(F)c2C)nn1-c1ccccc1Cl` (stereo not drawn) [Example 725]: the pIC50 under setting [1] is more than 7.00. `CCOc1cc(C(=O)N[C@@H](CC(=O)O)c2ccccc2)nn1-c1ccccc1Cl` [Example 726]: the pIC50 under setting [1] is 6.00 to 7.00. Turning to `CCOc1cc(C(=O)N[C@@H](CC(=O)O)c2ccccc2C)nn1-c1ccccc1Cl` [Example 727], under setting [1], the pIC50 was more than 7.00.

`CCOc1cc(C(=O)NC(CC(=O)O)c2ccc(C)cc2C)nn1-c1ccccc1Cl` (stereo not drawn) [Example 728]: the pIC50 under setting [1] was more than 7.00. In the case of `CCOc1cc(C(=O)N[C@@H](CC(=O)O)c2ccccc2OC)nn1-c1ccccc1Cl` [Example 729], under setting [1], the negative-log IC50 (pIC50) is 6.00 to 7.00.

Regarding `CCOc1cc(C(=O)N[C@@H](CC(=O)O)c2ccc(C#N)cc2)nn1-c1ccccc1Cl` [Example 730], the pIC50 under setting [1] was 6.00 to 7.00. The same measure, in the same setting: for `CCOc1cc(C(=O)N[C@@H](CC(=O)O)c2cccc(OC)c2)nn1-c1ccccc1Cl` [Example 731] the value was 6.00 to 7.00; for `CCOc1cc(C(=O)N[C@@H](CC(=O)O)c2cccc(C)c2)nn1-c1ccccc1Cl` [Example 732], more than 7.00.

In the case of `CCOc1cc(C(=O)N[C@@H](CC(=O)O)c2ccc(Cl)cc2)nn1-c1ccccc1Cl` [Example 733], under setting [1], the pIC50 was more than 7.00. Same read-out and setting: the value for `CCOc1cc(C(=O)N[C@@H](CC(=O)O)c2ccc(C(F)(F)F)cc2)nn1-c1ccccc1Cl` [Example 735] was 6.00 to 7.00; that for `CCOc1cc(C(=O)N[C@@H](CC(=O)O)c2ccc(C)cc2)nn1-c1ccccc1Cl` [Example 736] was more than 7.00. As for `CCOc1cc(C(=O)N[C@@H](CC(=O)O)c2ccccc2Cl)nn1-c1ccccc1Cl` [Example 737], the pIC50 under setting [1] is more than 7.00. On the same count and under the same terms, the value for `CCOc1cc(C(=O)NC(CC(=O)O)c2ccc(F)cc2C)nn1-c1ccccc1Cl` (stereo not drawn) [Example 738] was more than 7.00; that for `CCOc1cc(C(=O)NC(CC(=O)O)c2ccc(F)cc2)nn1-c1ccccc1Cl` (stereo not drawn) [Example 739] was 6.00 to 7.00; that for `CCOc1cc(C(=O)N[C@@H](CC(=O)O)c2ccccc2C(F)(F)F)nn1-c1ccccc1Cl` [Example 741] was 6.00 to 7.00. Same read-out and setting: for `CCOc1cc(C(=O)N[C@@H](CC(=O)O)c2cccc(Cl)c2Cl)nn1-c1ccccc1Cl` [Example 742] the value was more than 7.00. Regarding `CCOc1cc(C(=O)NC(CC(=O)O)c2cccc(C)c2C)nn1-c1ccccc1Cl` (stereo not drawn) [Example 743], under setting [1], the pIC50 is more than 7.00. As to `Cc1ccccc1[C@H](CC(=O)O)NC(=O)c1cc(OCC(O)C(C)(C)C)n(-c2ccccc2F)n1` (stereo partly drawn) [Example 744, (S)-3-{[1-(2-Fluoro-phenyl)-5-(2-hydroxy-3,3-dimethyl-butoxy)-1H-pyrazole-3-carbonyl]-amino}-3-o-tolyl-propionic acid], the negative-log IC50 (pIC50) under setting [1] is more than 7.00.

On to `Cc1ccccc1[C@H](CC(=O)O)NC(=O)c1cc(OC[C@@H](O)C(C)(C)C)n(-c2ccccc2F)n1` [Example 746, (S)-3-{[1-(2-Fluoro-phenyl)-5-((S)-2-hydroxy-3,3-dimethyl-butoxy)-1H-pyrazole-3-carbonyl]-amino}-3-o-tolyl-propionic acid], for which the negative logarithm of the IC50 (pIC50) under setting [1] is more than 7.00. As to `Cc1ccccc1[C@H](CC(=O)O)NC(=O)c1cc(OCC(C)O)n(-c2ccccc2F)n1` (stereo partly drawn) [Example 749], the negative logarithm of the IC50 (pIC50) under setting [1] was more than 7.00. For `CCC(C)(O)COc1cc(C(=O)N[C@@H](CC(=O)O)c2ccccc2C)nn1-c1ccccc1F` (stereo partly drawn) [Example 750], under setting [1], the negative-log IC50 (pIC50) was more than 7.00.

In the case of `CC(C)(O)COc1cc(C(=O)N[C@@H](CC(=O)O)c2ccc(Cl)cc2Cl)nn1-c1ccccc1F` [Example 751, (S)-3-(2,4-Dichloro-phenyl)-3-{[1-(2-fluoro-phenyl)-5-(2-hydroxy-2-methyl-propoxy)-1H-pyrazole-3-carbonyl]-amino}-propionic acid], the pIC50 under setting [1] was more than 7.00.

`Cc1ccccc1[C@H](CC(=O)O)NC(=O)c1cc(OCC(C)(C)O)n(-c2ccccc2F)n1` [Example 752]: under setting [1], the negative-log IC50 (pIC50) is more than 7.00. Turning to `CC(C)(C)[C@@H](O)COc1cc(C(=O)N[C@@H](CC(=O)O)c2ccc(Cl)cc2Cl)nn1-c1ccccc1F` [Example 753, (S)-3-(2,4-Dichloro-phenyl)-3-{[1-(2-fluoro-phenyl)-5-((R)-2-hydroxy-3,3-dimethyl-butoxy)-1H-pyrazole-3-carbonyl]-amino}-propionic acid], the pIC50 under setting [1] is more than 7.00 and the negative-log IC50 (pIC50) (recombinant human cathepsin A 833 ng/ml, Bodipy FL-labeled bradykinin 2 μM, pH 5.5, read-out: CATH-A IC50) was 6.46. As for `CC(C)(C)[C@H](O)COc1cc(C(=O)N[C@@H](CC(=O)O)c2ccc(Cl)cc2Cl)nn1-c1ccccc1F` [Example 754, (S)-3-(2,4-Dichloro-phenyl)-3-{[1-(2-fluoro-phenyl)-5-((S)-2-hydroxy-3,3-dimethyl-butoxy)-1H-pyrazole-3-carbonyl]-amino}-propionic acid], the negative-log IC50 (pIC50) under setting [1] is more than 7.00.

With `CCC(O)COc1cc(C(=O)N[C@@H](CC(=O)O)c2ccccc2C)nn1-c1ccccc1F` (stereo partly drawn) [Example 755], the pIC50 under setting [1] is more than 7.00. On to `CCC(O)(CC)COc1cc(C(=O)N[C@@H](CC(=O)O)c2ccccc2C)nn1-c1ccccc1F` [Example 756], for which the pIC50 under setting [1] is more than 7.00.

Take `Cc1ccccc1[C@H](CC(=O)O)NC(=O)c1cc(OCC(C)(O)C2CC2)n(-c2ccccc2F)n1` (stereo partly drawn) [Example 757, (S)-3-{[5-(2-Cyclopropyl-2-hydroxy-propoxy)-1-(2-fluoro-phenyl)-1H-pyrazole-3-carbonyl]-amino}-3-o-tolyl-propionic acid]: the negative logarithm of the IC50 (pIC50) under setting [1] is more than 7.00.

A word on the pIC50: it is the negative decadic logarithm of the IC50, by convention in mol/L.
